Like-named read-outs stand apart in the source and are kept apart here.
Test: Migration through porcine skin tissue under electric field (modified Franz apparatus)
Method: The effect of an electric field was explored on migration through the subcutis using fresh porcine abdominal skin tissue obtained from local abattoirs. To do this, a modified Franz apparatus was developed that could test up to 12 samples simultaneously (FIGS. 12A, 12B). Full-thickness porcine skin tissue plugs that were three cm in diameter were placed subcutis-down in individual wells over reservoirs containing cathodes below 2 ml of test solution. The device was then inverted to run the experiments.
Tissue and test solution were maintained at 37° C. using a heat lamp and monitored with a digital thermometer probe placed between the plexiglass plates, adjacent to the tissues. Anodes were inserted into conductive paste placed on the epidermal surface. Utilizing multiple electrophoresis power sources, 10V or 20V of electromotive potential was then run across each cathode-anode pair for one hour.
We tested the apparatus using a solution of bromophenol blue (BPB), a 0.67 kDa dye that appears blue above pH 4.6 and carries a negative charge near neutral pH similar to that of insulin. […]
One microscope slide was stained with H&E; an adjacent slide was stained with a Guinea pig polyclonal antibody (Ab) (Abcam ab7842), which was detected by a goat anti-Guinea pig polyclonal IgG H&L (Alexa Fluor® 594; Abcam ab150188).

Compound	migration through porcine skin layers with voltage applied (10 V, 37° C., about one hour, test solution on subcutaneous surface)	migration through porcine skin layers with voltage applied
O=S1(=O)OC(c2cc(Br)c(O)c(Br)c2)(c2cc(Br)c(O)c(Br)c2)c2ccccc21 [bromophenol blue]	dye penetrated through the subcutis in voltage-treated tissue	
Cy5-insulin: human insulin conjugated to cyanine-5-NHS-ester fluorophore (P/N IS1-S5-1, Nanocs, Inc.)		migration of the fluorescence-tagged insulin through the full skin thickness

— US10561711B2, “Rapid action insulin formulations and pharmaceutical delivery systems” (Thermalin Inc., priority 2014, dated 2020)
